From patent publication US20060069132A1, “Azolecarboxamide herbicides” (priority 2004, published 2006)

Tests used:
barnyardgrass [1] = assay: Test B pre-/postemergence herbicide test; type: in vivo, Echinochloa crus-galli; settings: for Barnyardgrass plant response rating: postemergence
Procedure, shortened: (§1)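 Visual rating, 0 (no effect) to 100 (complete control), versus untreated controls after 13–15 d in greenhouse. Pre- and postemergence applications (postemergence plants 2–18 cm, 1–4 leaves); flooded paddy arm at 2-leaf stage. Compounds in non-phytotoxic solvent plus surfactant.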

Surinam grass = assay: Test B pre-/postemergence herbicide test; type: in vivo, Urochloa decumbens; settings: for Surinam Grass plant response rating: scale 0 (no effect) to 100 (complete control)
Procedure, shortened: (§2)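 Seeds were planted and treated preemergence with compounds formulated in a non-phytotoxic solvent mixture containing surfactant, while plants at the 1- to 4-leaf stage (2 to 18 cm) received postemergence sprays. Flooded paddy plants were grown to the 2-leaf stage. After 13 to 15 days in a greenhouse, injury was visually rated 0–100 against untreated controls.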

cocklebur = assay: Test B pre-/postemergence herbicide test; type: in vivo, Xanthium strumarium; settings: for Cocklebur plant response rating: postemergence
Procedure, shortened: as §1

corn = assay: Test B pre-/postemergence herbicide test; type: in vivo, Zea mays; settings: for Corn plant response rating: postemergence
Procedure, shortened: as §2

large crabgrass = assay: Test B pre-/postemergence herbicide test; type: in vivo, Digitaria sanguinalis; settings: for Crabgrass, Large plant response rating: postemergence
Procedure, shortened: as §2

giant foxtail = assay: Test B pre-/postemergence herbicide test; type: in vivo, Setaria faberi; settings: for Foxtail, Giant plant response rating: postemergence
Procedure, shortened: as §2

lambsquarters = assay: Test B pre-/postemergence herbicide test; type: in vivo, Chenopodium album; settings: scale 0 (no effect) to 100 (complete control)
Procedure, shortened: as §2

morningglory = assay: Test B pre-/postemergence herbicide test; type: in vivo, Ipomoea coccinea; settings: for Morningglory plant response rating: scale 0 (no effect) to 100 (complete control)
Procedure, shortened: as §1

pigweed = assay: Test B pre-/postemergence herbicide test; type: in vivo, Amaranthus retroflexus; settings: for Pigweed plant response rating: scale 0 (no effect) to 100 (complete control)
Procedure, shortened: as §2

velvetleaf = assay: Test B pre-/postemergence herbicide test; type: in vivo, Abutilon theophrasti; settings: for Velvetleaf plant response rating: scale 0 (no effect) to 100 (complete control)
Procedure, shortened: as §2

blackgrass = assay: Test B postemergence herbicide test; type: in vivo, Alopecurus myosuroides; settings: postemergence
Procedure, shortened: (§3)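 Visual ratings, 0 (no effect) to 100 (complete control), made versus controls after 13–15 d greenhouse. Paddy plants treated at 2-leaf stage; postemergence plants at 1- to 4-leaf stage, 2–18 cm tall.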

wheat = assay: Test B postemergence herbicide test; type: in vivo, Triticum aestivum; parameters: key to Wheat plant response rating: 0 = no effect, 100 = complete control
Procedure, shortened: (§4)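 Treated at 2-leaf (paddy) or 1–4-leaf, 2–18 cm (postemergence); greenhouse 13–15 d; visual score vs control, 0 none to 100 complete control; dash = not tested.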

wild oat = assay: Test B postemergence herbicide test; type: in vivo, Avena fatua; settings: scale 0 (no effect) to 100 (complete control)
Procedure, shortened: as §4

rice [2] = assay: Test B flooded paddy test; type: in vivo, Oryza sativa; settings: 1000 g ai/ha, scale 0 to 100 (0 no effect, 100 complete control)
Procedure, shortened: as §3

[3] = test system: small flower umbrella sedge; assay: Test B flooded paddy test; type: in vivo, Cyperus difformis; settings: 1000 g ai/ha, scale 0 to 100 (0 no effect, 100 complete control)
Procedure, shortened: as §3

ducksalad [4] = assay: Test B flooded paddy test; type: in vivo, Heteranthera limosa; settings: 1000 g ai/ha, scale 0 to 100 (0 no effect, 100 complete control)
Procedure, shortened: as §3

barnyardgrass [5] = assay: Test B flooded paddy test; type: in vivo, Echinochloa crus-galli; settings: 1000 g ai/ha, scale 0 to 100 (0 no effect, 100 complete control)
Procedure, shortened: as §3

rice [6] = assay: Test C flooded paddy test; type: in vivo, Oryza sativa
Procedure, shortened: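 Postemergence sprays applied to plants 2 to 18 cm tall (1- to 4-leaf stage); paddy species grown to 2-leaf stage under flooding. After 12 to 14 days in greenhouse, visual rating versus untreated controls on 0–100 scale (0 no effect, 100 complete control).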

[7] = test system: smallflower umbrella sedge; assay: Test C flooded paddy test; type: in vivo, Cyperus difformis
ducksalad [8] = assay: Test C flooded paddy test; type: in vivo, Heteranthera limosa
barnyardgrass [9] = assay: Test C flooded paddy test; type: in vivo, Echinochloa crus-galli
Procedure, shortened: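 After a postemergence application at 1 to 4 leaves (plants 2–18 cm high), or at 2 leaves for barnyardgrass in flooded paddy, plants stayed in the greenhouse for 12 to 14 days. Damage was then judged visually relative to control plants, with 100 indicating complete control.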

[10] = 125 g ai/ha, 0 is no effect, 100 is complete control, preemergence
[11] = 125 g ai/ha, visual rating, scale 0 (no effect) to 100 (complete control)
[12] = 500 g ai/ha, scale 0 to 100, 0 is no effect, 100 is complete control
[13] = 125 g ai/ha, visual rating, postemergence
[14] = 125 g ai/ha, scale 0 to 100 (0 no effect, 100 complete control)
[15] = 250 g ai/ha, scale of 0 to 100, 0 is no effect, 100 is complete control
[16] = 500 g ai/ha, visual rating after 12 to 14 days, scale 0 to 100 (0 no effect, 100 complete control)

SMILES: CCc1nn(C(C)(C)CC)nc1C(=O)Nc1cc(C(=O)N(C)C)ccc1F [Compound 368]
- Plant response rating (0 to 100 scale), Barnyardgrass (barnyardgrass [1]; [10]): 40
- Barnyardgrass plant response rating (barnyardgrass [1]; [11]): 0
- Barnyardgrass plant response rating (barnyardgrass [1]; [12]): 10
- Plant response rating (0 to 100 scale), Surinam Grass (Surinam grass; [10]): 10
- Surinam Grass plant response rating (Surinam grass; [13]): 0
- Surinam Grass plant response rating (Surinam grass; Postemergence, 500 g ai/ha): 0
- Plant response rating (0 to 100 scale), Cocklebur (cocklebur; [10]): 0
- Cocklebur plant response rating (cocklebur; [11]): 20
- Cocklebur plant response rating (cocklebur; [12]): 30
- Plant response rating (0 to 100 scale), Corn (corn; [10]): 0
- Corn plant response rating (corn; [11]): 0
- Corn plant response rating (corn; [12]): 10
- Plant response rating (0 to 100 scale), Crabgrass, Large (large crabgrass; [10]): 10
- Crabgrass, Large plant response rating (large crabgrass; [11]): 10
- Crabgrass, Large plant response rating (large crabgrass; [12]): 10
- Plant response rating (0 to 100 scale), Foxtail, Giant (giant foxtail; [10]): 20
- Foxtail, Giant plant response rating (giant foxtail; [11]): 0
- Foxtail, Giant plant response rating (giant foxtail; [12]): 10
- Lambsquarters plant response rating (lambsquarters; [13]): 50
- Lambsquarters plant response rating (lambsquarters; Postemergence, 500 g ai/ha): 60
- Plant response rating (0 to 100 scale), Morningglory (morningglory; [10]): 0
- Morningglory plant response rating (morningglory; [13]): 0
- Morningglory plant response rating (morningglory; Postemergence, 500 g ai/ha): 30
- Plant response rating (0 to 100 scale), Pigweed (pigweed; [10]): 30
- Pigweed plant response rating (pigweed; [13]): 10
- Pigweed plant response rating (pigweed; Postemergence, 500 g ai/ha): 50
- Plant response rating (0 to 100 scale), Velvetleaf (velvetleaf; [10]): 0
- Velvetleaf plant response rating (velvetleaf; [13]): 10
- Velvetleaf plant response rating (velvetleaf; Postemergence, 500 g ai/ha): 20
- Blackgrass plant response rating (blackgrass; [11]): 0
- Blackgrass plant response rating (blackgrass; [12]): 10
- Wheat plant response rating (wheat; 125 g ai/ha, visual rating, scale 0 (no effect) to 100 (complete control), postemergence): 0
- Wheat plant response rating (wheat; 500 g ai/ha, scale 0 to 100, 0 no effect, 100 complete control, preemergence): 10
- Wheat plant response rating (wheat; Postemergence, 500 g ai/ha, scale 0 (no effect) to 100 (complete control)): 0
- Oat, Wild plant response rating (wild oat; [13]): 0
- Oat, Wild plant response rating (wild oat; Postemergence, 500 g ai/ha): 0
- Rice plant response rating (rice [2]): 50
- Sedge, Umbrella plant response rating [3]: 80
- Ducksalad plant response rating (ducksalad [4]): 90
- Barnyardgrass plant response rating (barnyardgrass [5]): 60
- Rice plant response rating (rice [6]; 62 g ai/ha, scale 0 to 100): 20
- Rice plant response rating (rice [6]; [14]): 45
- Rice plant response rating (rice [6]; [15]): 60
- Plant response rating, Rice (rice [6]; [16]): 70
- Sedge, Umbrella plant response rating ([7]; 62 g ai/ha, scale 0 to 100): 20
- Sedge, Umbrella plant response rating [7, 14]: 75
- Sedge, Umbrella plant response rating [7, 15]: 75
- Ducksalad plant response rating (ducksalad [8]; 62 g ai/ha, scale 0 to 100): 0
- Ducksalad plant response rating (ducksalad [8]; [14]): 80
- Ducksalad plant response rating (ducksalad [8]; [15]): 90
- Barnyardgrass plant response rating (barnyardgrass [9]; 62 g ai/ha, scale 0 to 100 (0 no effect, 100 complete control)): 0
- Barnyardgrass plant response rating (barnyardgrass [9]; [14]): 0
- Barnyardgrass plant response rating (barnyardgrass [9]; [15]): 0
- Plant response rating, Barnyardgrass (barnyardgrass [9]; [16]): 30
